This is an account of results in patent US10172911B2, “Methods of modulating erythropoiesis with arginine vasopressin receptor 1B molecules” (The United States of America, as represented by the …, priority 2013, dated 2019).

Entries after “also recorded” stand apart in the source; their conditions may differ.

The test system of assay [1] is human CD34+ hematopoietic progenitors. In words: Intracellular Ca2+ measurement in Fura-2 loaded human CD34+ hematopoietic progenitors. In kind it is cell-based. As to conditions: human CD34+ cells, agonist stimulation. Here is the method: Human BMSCs were loaded with Fura-2 and the cells were stimulated with AVP, or OXT. Intracellular Ca^2+ concentration was assayed as described before (Ely, J. A. et al. J Biol Chem 266, 18635-18641 (1991). To study their response to AVP and specific AVP receptor agonists and antagonists human CD34+ hematopoietic progenitors were Fura-2 loaded and Cytoplasmic Ca2+ measurements were performed in cells kept in suspension using a fluorescence spectrophotometer (Deltascan, Photon Technology International). Ratiometric measurements were recorded at 340/380 nm excitation and 500 nm emission and the ratios were plotted against time. Ionomycin (10 μM) was added at the end of each run to determine the maximum fluorescence ratio.

For a further assay, the system named is Wnt pathway. In words: Q-PCR and microarray of Wnt pathway genes in AVP-stimulated CD34+ cells. The class given is cell-based, human. An excerpt:
FIGS. 3A-3D show studies of signaling pathways. FIG. 3A provides results from CFU assays showing E-CFU and GM-CFU numbers/1000 plated cells. […] Error bars represent means±SD * p<0.05, ** p<0.01, unpaired t-test. […] The cells were then fixed with 4% paraformaldehyde and washed before immunostaining. Following permeabilization with Triton-X 100 a primary antibody to β-catenin was applied followed by a fluorescent secondary antibody. The β-catenin translocated to the nucleus at the 10^−10 AVP concentration confirming the activation of the Wnt pathway. Scale: 10 μm. […] Using Q-PCR to detect changes in genes that reflect Wnt pathway activation, increases in CCND1, MYC and LEF1 in response to AVP stimulation were observed.
The resultant cDNA was amplified with QuantiTect SYBR Green RT-PCR kit (Qiagen) or with SYBR Green Supermix (Bio-Rad, Hercules, Calif.). For qPCR, cDNA (2 μls of cDNA for AVP expression and […] for OXT or beta-actin expression) was amplified with QuantiTect SYBR Green RT-PCR kit and the expression data were normalized to human beta-actin expression.

In assay [2] the test system is CD34^+ cells from healthy donors. In words: CFU assay (E-CFU, GM-CFU) of human CD34+ cells in Methocult. In kind it is cell-based. The conditions noted are these: per 1000 plated CD34+ cells; 10^−8 M. The protocol:
CD34^+ cells from healthy donors were plated into semi-solid methylcellulose medium (Methocult) containing hematopoietic factors (GM-CSF 5 ng/ml, IL-3 5 ng/ml, SCF 50 ng/ml, EPO 2.5 U/ml).
The number of erythroid colony forming units (E-CFU) and granulocyte-macrophage colony forming units (GM-CFU) were determined based on morphological criteria on 7th and 14th days in culture.

The subject of assay [3] is CD34^+ human hematopoietic progenitor cells. In words: cAMP measurement in CD34+ human hematopoietic progenitor cells. In kind it is cell-based. As to conditions: AVP 10^−10 M vs non-stimulated cells. The source says: For cAMP measurements in CD34^+ human hematopoietic progenitor cells derived from two donors. The cAMP femto 2 kit (Cat#62AM5PEB, Cisbio) was used according to manufacturers instructions. The measurements were done on a Wallac Victor2 1420 multilabel counter (Perkin Elmer).

For assay [4], the system named is mice. In words: Phenylhydrazine (hemolytic) anemia model. The class given is in vivo, mouse. The conditions noted are these: day 2 and day 4. The protocol:
Phenylhydrazine, a known hemolytic agent, was injected intraperitoneally by administration of phenylhydrazine hydrochloride ip. 50 mg/kg body wt. (injection volume range of 100-150 μls) on day 0 and 1 and then mice were implanted with ALZET micro-osmotic pumps as described above to deliver AVP or vehicle. Blood samples were taken at 2, 4 and in some cases 6 and 14 days later to determine hematocrit and corrected reticulocyte values.

Assay [5] concerns mice. In words: EPO neutralization study in hemorrhage. In kind it is in vivo, mouse. Here is the method: To infuse vasopressin into the mice, AVP filled ALZET pumps were implanted subcutaneously on the dorsal aspect of the neck (5 ug/day, Alzet 1007D—7 days, 2002-14 days). Vasopressin was also given immediately and 6 hours later as a bolus injection (100 μg/kg). Alzet pumps were inserted subcutaneously. The dimensions and pump specification are: ALZET, (DURECT Corporation, Cupertino, Calif., USA) mini-osmotic pump models 1007D or 2002. The pumps deliver 0.5 μl/h of the desired substance for a for 2-week period. In some cases, erythropoietin antibody (100 μg/mice) was given before anesthesia with the corresponding control antibody. […] Following the initial hemorrhage blood samples were taken at 2, 4 and in some cases 6 days later to determine hematocrit and corrected reticulocyte values.
In some cases Erythropoietin antibody (100 μg/mice) was given before anesthesia with the corresponding control antibody.

Where [6] appears, read: AVP stimulated CD34+ cells vs control cells.

Turning to `NC(=O)CC[C@@H]1NC(=O)[C@H](Cc2ccccc2)NC(=O)[C@H](Cc2ccc(O)cc2)NC(=O)[C@@H](N)CSSC[C@@H](C(=O)N2CCC[C@H]2C(=O)N[C@@H](CCCN=C(N)N)C(=O)NCC(N)=O)NC(=O)[C@H](CC(N)=O)NC1=O` [AVP, [Arg8]-Vasopressin], the intracellular calcium levels result in assay [1] is listed as “increases in their intracellular calcium levels; also recorded: increase in intracellular calcium; also recorded: increased intra-cellular Ca^2+ concentrations”. In the assay with Wnt pathway (setting [6]), the “LEF1 RNA” value was “an increase (statistically not significant)”, the “MYC RNA” value was “significantly more” and the “cyclin D1 (CCND1) RNA” value is on record as “significantly more”. Also, the “difference in Wnt pathway genes (CDON, DKK1, DPP10, FZD7 up; CDKN2A, FST, KLF5 down)” value in the assay on Wnt pathway (single microarray study) is on record as “over two-fold difference”. In addition, in assay [2], the “erythroid-colony forming unit (E-CFU) numbers” value was “significantly increased; also recorded: increased erythroid colony formation”; the “granulocyte macrophage-colony forming unit (GM-CFU) numbers” value is “increased both E-CFU and GM-CFU in another”. Besides, in assay [3], the “cAMP in human CD34+ progenitors” value is reported as “moderate increase in cAMP”. Also, the “outcome measures (hematocrit, corrected reticulocytes)” value with mice [4] is “significantly improved outcome measures on day 2 and to some extent on day 4”. For the same compound, in the assay with mice [5] (EPO neutralized group, day 6), the CR numbers entry was “began to increase CR numbers”. For the same compound, the “CR values over PBS” value in the assay with mice [5] (EPO neutralized, day 4) was “eliminated this difference”. Besides, in the assay with mice [5] (after EPO neutralization, hemorrhage), the hematocrit values result is recorded as “significantly increased hematocrit values”. Also, in the assay on mice [5] (control mice, day 4 and 6), the “CR values over PBS” value is reported as “increased the CR values over PBS”. Also, the “corrected reticulocyte (CR) values, EPO neutralized or control groups, AVP or PBS” value in the assay with mice [5] (day 2) was “no significant difference”.
